# Key:
# physchem = settings: octanol/water
# in vitro [1] = settings: human, Caco-2
# in vitro [2] = settings: human, Caco-2; remark: listed apart in the source
# [3] = Oral bioavailability in rat; type: ADME, organism-based; settings: in vivo
# [4] = Volume of distribution at steady state in rat; type: ADME, organism-based; settings: in vivo, read-out: Vdss
Structure (SMILES),logD (physchem),Papp B→A (in vitro [1]) [nm/s],Papp A→B (in vitro [2]) [nm/s],bioavailability [3] [%],Vd [4] [L/kg]
CCCC1(C(=O)c2ccc3[nH]ncc3c2)CCCN1 (stereo not drawn),1,160,290,,
CC(C)CC1(C(=O)c2ccc3[nH]ncc3c2)CCCN1 (stereo not drawn),1,200,320,,
CC(C)(C)CCC1(C(=O)c2ccc3[nH]ncc3c2)CCCN1 (stereo not drawn),2.03,120,200,,
CCCC1(C(=O)c2ccc3[nH]ccc3c2)CCCN1 (stereo not drawn),1.45,100,410,,
O=C(c1ccc2[nH]ccc2c1)C1(Cc2ccccc2)CCNC1 (stereo not drawn),,190,170,,
"CC(C)OCC1(C(=O)c2ccc(N)c(Cl)c2)CCCN1 (single isomer, unassigned; (+))",0.84,180,300,,
"CC(C)(C)CCC1(C(=O)c2cc(F)c3[nH]ccc3c2)CCNC1 (single isomer, unassigned; (+))",,,,5,14
"CC(C)(C)CCC1(C(=O)c2ccc(Cl)c(Cl)c2)CCNC1 (single isomer, unassigned; (+))",,,,57,14.3
CNCC[C@H](Oc1cccc2ccccc12)c1cccs1 [DULOXETINE],,,,22,20.9
